Source: patent US20200060276A1, “THIAZOLE COMPOUND AND HERBICIDE” (OAT Agrio Co., Ltd., priority 2017, published 2020)

Key:
Assay type in all cases: in vivo
[1] = tested on: Echinochloa crus-galli (L.) P. Beauv. var. formosensis Ohwi; experiment: Test for Herbicidal Effect in Flooding Treatment (#2), ECHDG at 2-2.5 leaf stage; conditions: flooding treatment at 2-2.5 leaf stage, dose 0.2 kg/ha, visual observation on day 21
Outline: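 Flooded muddy soil was seeded with the weed, and at 2–2.5 leaf stage compound in acetone/Tween 80 water was dropped on the water surface at 0.2 kg/ha. Plants were kept in a glasshouse and scored visually on day 21 from 0 (<10% growth inhibition) to 5 (≥90% or complete withering).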

Cyperus microiria = experiment: Test for Herbicidal Effect in Flooding Treatment (#1), CYMIC; conditions: flooding treatment at seeding, dose 2 kg/ha, visual observation on day 21
Outline: (§1)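 Flooded soil in cups was seeded 24 h after flooding, then treated with compound in acetone diluted with Tween 80-containing water, dropped onto the water surface at 2 kg/ha. After growth in a glasshouse, growth inhibition was scored visually on day 21 on a 0 (<10%) to 5 (≥90% or complete withering) scale.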

Monochoria vaginalis = experiment: Test for Herbicidal Effect in Flooding Treatment (#1), MONVA; conditions: flooding treatment at seeding, dose 2 kg/ha, visual observation on day 21
Outline: as §1

[2] = tested on: Echinochloa crus-galli (L.) P. Beauv. var. formosensis Ohwi; experiment: Test for Herbicidal Effect in Flooding Treatment (#1), ECHDG; conditions: flooding treatment at seeding, dose 2 kg/ha, visual observation on day 21
Outline: as §1

Scirpus juncoides = experiment: Test for Herbicidal Effect in Flooding Treatment (#1), SCIJU; conditions: flooding treatment at seeding, dose 2 kg/ha, visual observation on day 21
Outline: as §1

SMILES	ECHDG (2-2.5L) #2 herbicidal effect (growth inhibition grade) [1]	CYMIC #1 herbicidal effect (growth inhibition grade) (Cyperus microiria)	MONVA #1 herbicidal effect (growth inhibition grade) (Monochoria vaginalis)	ECHDG #1 herbicidal effect (growth inhibition grade) [2]	SCIJU #1 herbicidal effect (growth inhibition grade) (Scirpus juncoides)
CCOc1c(C)cc(Cl)cc1CS(=O)(=O)c1ncc(Cl)s1 [Compound 1C-26]	5 (Growth inhibition effect is equal to or greater than 90%, or complete withering is achieved)	5 (Growth inhibition effect is equal to or greater than 90%, or complete withering is achieved)	5 (Growth inhibition effect is equal to or greater than 90%, or complete withering is achieved)	5 (Growth inhibition effect is equal to or greater than 90%, or complete withering is achieved)	5 (Growth inhibition effect is equal to or greater than 90%, or complete withering is achieved)
CCOc1c(F)ccc(F)c1CS(=O)(=O)c1ncc(Cl)s1 [Compound 1C-27]	5 (Growth inhibition effect is equal to or greater than 90%, or complete withering is achieved)	5 (Growth inhibition effect is equal to or greater than 90%, or complete withering is achieved)	5 (Growth inhibition effect is equal to or greater than 90%, or complete withering is achieved)	5 (Growth inhibition effect is equal to or greater than 90%, or complete withering is achieved)	5 (Growth inhibition effect is equal to or greater than 90%, or complete withering is achieved)
CCOc1c(C)ccc(C)c1CS(=O)(=O)c1ncc(Cl)s1 [Compound 1C-28]	5 (Growth inhibition effect is equal to or greater than 90%, or complete withering is achieved)	5 (Growth inhibition effect is equal to or greater than 90%, or complete withering is achieved)	5 (Growth inhibition effect is equal to or greater than 90%, or complete withering is achieved)	5 (Growth inhibition effect is equal to or greater than 90%, or complete withering is achieved)	5 (Growth inhibition effect is equal to or greater than 90%, or complete withering is achieved)
CCOc1cc(C)c(Cl)cc1CS(=O)(=O)c1ncc(Cl)s1 [Compound 1C-30]	5 (Growth inhibition effect is equal to or greater than 90%, or complete withering is achieved)	5 (Growth inhibition effect is equal to or greater than 90%, or complete withering is achieved)	5 (Growth inhibition effect is equal to or greater than 90%, or complete withering is achieved)	5 (Growth inhibition effect is equal to or greater than 90%, or complete withering is achieved)	5 (Growth inhibition effect is equal to or greater than 90%, or complete withering is achieved)
CCOc1cc(F)cc(F)c1CS(=O)(=O)c1ncc(Cl)s1 [Compound 1C-31]	5 (Growth inhibition effect is equal to or greater than 90%, or complete withering is achieved)	5 (Growth inhibition effect is equal to or greater than 90%, or complete withering is achieved)	5 (Growth inhibition effect is equal to or greater than 90%, or complete withering is achieved)	5 (Growth inhibition effect is equal to or greater than 90%, or complete withering is achieved)	5 (Growth inhibition effect is equal to or greater than 90%, or complete withering is achieved)
CCOc1cc(C)c(Cl)c(C)c1CS(=O)(=O)c1ncc(Cl)s1 [Compound 1C-35]	5 (Growth inhibition effect is equal to or greater than 90%, or complete withering is achieved)	5 (Growth inhibition effect is equal to or greater than 90%, or complete withering is achieved)	5 (Growth inhibition effect is equal to or greater than 90%, or complete withering is achieved)	5 (Growth inhibition effect is equal to or greater than 90%, or complete withering is achieved)	5 (Growth inhibition effect is equal to or greater than 90%, or complete withering is achieved)
CC(C)Oc1ccccc1CS(=O)(=O)c1ncc(Cl)s1 [Compound 1C-36]	4 (Growth inhibition effect is equal to or greater than 70%, and less than 90%)	5 (Growth inhibition effect is equal to or greater than 90%, or complete withering is achieved)	5 (Growth inhibition effect is equal to or greater than 90%, or complete withering is achieved)	5 (Growth inhibition effect is equal to or greater than 90%, or complete withering is achieved)	5 (Growth inhibition effect is equal to or greater than 90%, or complete withering is achieved)
O=S(=O)(Cc1cc(Cl)ccc1OC(F)F)c1ncc(Cl)s1 [Compound 1C-39]	5 (Growth inhibition effect is equal to or greater than 90%, or complete withering is achieved)	5 (Growth inhibition effect is equal to or greater than 90%, or complete withering is achieved)	5 (Growth inhibition effect is equal to or greater than 90%, or complete withering is achieved)	5 (Growth inhibition effect is equal to or greater than 90%, or complete withering is achieved)	5 (Growth inhibition effect is equal to or greater than 90%, or complete withering is achieved)
O=S(=O)(Cc1cc(Br)ccc1OC(F)F)c1ncc(Cl)s1 [Compound 1C-40]	5 (Growth inhibition effect is equal to or greater than 90%, or complete withering is achieved)	5 (Growth inhibition effect is equal to or greater than 90%, or complete withering is achieved)	5 (Growth inhibition effect is equal to or greater than 90%, or complete withering is achieved)	5 (Growth inhibition effect is equal to or greater than 90%, or complete withering is achieved)	5 (Growth inhibition effect is equal to or greater than 90%, or complete withering is achieved)
O=S(=O)(Cc1cc(Br)ccc1OC(F)(F)F)c1ncc(Cl)s1 [Compound 1C-47]	4 (Growth inhibition effect is equal to or greater than 70%, and less than 90%)	5 (Growth inhibition effect is equal to or greater than 90%, or complete withering is achieved)	5 (Growth inhibition effect is equal to or greater than 90%, or complete withering is achieved)	5 (Growth inhibition effect is equal to or greater than 90%, or complete withering is achieved)	5 (Growth inhibition effect is equal to or greater than 90%, or complete withering is achieved)
COc1cccc(CS(=O)(=O)c2ncc(Cl)s2)c1 [Compound 1C-65]	5 (Growth inhibition effect is equal to or greater than 90%, or complete withering is achieved)	5 (Growth inhibition effect is equal to or greater than 90%, or complete withering is achieved)	5 (Growth inhibition effect is equal to or greater than 90%, or complete withering is achieved)	5 (Growth inhibition effect is equal to or greater than 90%, or complete withering is achieved)	5 (Growth inhibition effect is equal to or greater than 90%, or complete withering is achieved)
COc1cccc(CS(=O)(=O)c2ncc(Cl)s2)c1Cl [Compound 1C-66]	4 (Growth inhibition effect is equal to or greater than 70%, and less than 90%)	5 (Growth inhibition effect is equal to or greater than 90%, or complete withering is achieved)	5 (Growth inhibition effect is equal to or greater than 90%, or complete withering is achieved)	5 (Growth inhibition effect is equal to or greater than 90%, or complete withering is achieved)	5 (Growth inhibition effect is equal to or greater than 90%, or complete withering is achieved)
